Assay: excess molar enthalpy (molar enthalpy of mixing); xn = mol fraction of the nth substance listed
Details: Liquid, Flow calorimetry

C1CCCCC1 [cyclohexane] + CCCC(C)O
x2 = 0
Details | excess molar enthalpy [kcal/mol]
298.15 K | 0
313.15 K | 0

Cc1ccccc1 [toluene] + CCCC(C)O
x2 = 0
Details | excess molar enthalpy [kcal/mol]
298.15 K | 0
313.15 K | 0

CCCC(C)O (centres undefined) [pentan-2-ol] + C1CCCCC1
excess molar enthalpy [kcal/mol]
Details | 298.15 K | 313.15 K
x1 = 0.0496 | 0.105 | 0.133
x1 = 0.1013 | 0.144 | 0.181
x1 = 0.151 | 0.169 | 0.208
x1 = 0.2008 | 0.189 | 0.229
x1 = 0.2506 | 0.205 | 0.246
x1 = 0.3003 | – | 0.258
x1 = 0.3005 | 0.218 | –
x1 = 0.3502 | – | 0.265
x1 = 0.3503 | 0.228 | –
x1 = 0.4001 | 0.232 | –
x1 = 0.4002 | – | 0.265
x1 = 0.4499 | 0.234 | –
x1 = 0.4501 | – | 0.265
x1 = 0.5001 | – | 0.259
x1 = 0.5002 | 0.228 | –
x1 = 0.5499 | 0.22 | –
x1 = 0.5501 | – | 0.251
x1 = 0.6001 | – | 0.236
x1 = 0.6002 | 0.207 | –
x1 = 0.6501 | 0.187 | –
x1 = 0.6502 | – | 0.219
x1 = 0.7002 | 0.166 | –
x1 = 0.7003 | – | 0.198
x1 = 0.7504 | 0.146 | –
x1 = 0.7505 | – | 0.171
x1 = 0.8007 | 0.121 | 0.144
x1 = 0.8509 | 0.0932 | –
x1 = 0.851 | – | 0.11
x1 = 0.9013 | 0.0625 | 0.0756
x1 = 0.9496 | 0.0302 | 0.0394
x1 = 1 | 0 | 0

CCCC(C)O (centres undefined) [pentan-2-ol] + Cc1ccccc1
excess molar enthalpy [kcal/mol]
Details | 298.15 K | 313.15 K
x1 = 0.0508 | 0.149 | 0.154
x1 = 0.0998 | 0.226 | –
x1 = 0.0999 | – | 0.245
x1 = 0.151 | 0.276 | 0.307
x1 = 0.2002 | 0.31 | –
x1 = 0.2003 | – | 0.346
x1 = 0.2496 | 0.335 | 0.375
x1 = 0.3009 | 0.354 | –
x1 = 0.301 | – | 0.397
x1 = 0.3506 | 0.367 | 0.408
x1 = 0.4003 | 0.373 | 0.414
x1 = 0.4501 | 0.373 | –
x1 = 0.4502 | – | 0.414
x1 = 0.5001 | 0.369 | 0.407
x1 = 0.5501 | 0.359 | –
x1 = 0.5502 | – | 0.394
x1 = 0.6003 | 0.344 | 0.377
x1 = 0.6505 | – | 0.353
x1 = 0.6506 | 0.32 | –
x1 = 0.701 | 0.293 | 0.32
x1 = 0.7495 | 0.259 | 0.282
x1 = 0.8002 | 0.22 | 0.239
x1 = 0.8509 | 0.173 | –
x1 = 0.851 | – | 0.187
x1 = 0.8996 | 0.12 | –
x1 = 0.8998 | – | 0.132
x1 = 0.9508 | 0.0597 | –
x1 = 0.9509 | – | 0.0661
x1 = 1 | 0 | 0
